Results: patent US20060057669A1, “Inactive transcription factor tif-ia and uses thereof” (priority 2002, published 2006)

Assays:
Pol I transcription = test: In vitro transcription: TIF-IA mutants added to nuclear extract from exponentially growing FM3A cells; format: biochemical, murine; conditions: 20 and 40 ng added to 15 ug nuclear extract
Pol I = test: Co-immunoprecipitation of Pol I with TIF-IA mutants from HEK293T cells; format: binding, human
Protocol: (B) A mutant that mimics phosphorylation of TIF-IA at S199 fails to interact with Pol I and TIF-IB. FLAG-tagged wild-type TIF-IA or the indicated point mutants were overexpressed in HEK293T cells and immunoprecipitated from cell lysates with anti-FLAG antibodies (M2 agarose). Co-precipitated Pol I and TIF-IB/SL1 were visualized on Western blots with anti-RPA116 and anti-TAFI110 antibodies.
Immunoprecipitations were carried out from human cells overexpressing FLAG-tagged TIF-IA. Cells were lysed in IP buffer, cleared by centrifugation at 10,000×g for 30 min, and the supernatants were incubated for 4 hr at 4° C. with anti-FLAG (M2) agarose (Sigma). To analyze the interaction of TIF-IA with TIF-IB/SL1, the immunoprecipitates were washed with IP buffer and TIF-IB/SL1 was visualized on immunoblots with α-TAFI110 antibodies. To monitor the interaction of TIF-IA with Pol I, the immunoprecipitates were washed with IP buffer containing 600 mM NaCl and Pol I was analyzed on Western blots using antibodies against the second largest subunit of Pol I (RPA116) or PAF67 (Seither et al., J. Biol. Chem. 382 (2001), 1163-1170).
Given the importance of mTOR-mediated alterations in the phosphorylation pattern on TIF-IA activity, one could predict that either phosphorylation of S199, dephosphorylation of S44 or both regulate the interaction of TIF-IA with the Pol I transcription apparatus. It was therefore examined whether the S→A or S→D point mutant(s) were capable of interacting with Pol I and/or TIF-IB/SL1. For this, TIF-IA was precipitated from cells overexpressing either FLAG-tagged wild-type TIF-IA or the respective S199 and S44 mutant(s), and co-precipitated Pol I and TIF-IB/SL1 were visualized on Western blots.

With “TIF-IA: wild-type human transcription initiation factor TIF-IA, accession No. AJ272050” the “effect on transcriptional activity of extracts from exponentially growing cells” value (Pol I transcription) was “not stimulated by exogenous TIF-IA” and the “interaction with Pol I (co-precipitated RPA116)” value (Pol I) was “interacted with both Pol I and TIF-IB/SL1”.
